# Calls of active or inactive are those of the source.
# Columns and labels:
# Fatty acid synthase [1] = target: T1, Fatty acid synthase (Homo sapiens, UniProt P49327); assay: FAS thioesterase domain inhibitors, dose response, biochemical, kinetic fluorescence intensity (AID 624326); assay type: functional;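 further: rate of fluorescence rise from hydrolysis of a fluorogenic O-methyl fluorescein ester substrate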
# Fatty acid synthase [2] = target: T1, Fatty acid synthase; assay: FAS thioesterase domain inhibitors, dose response, biochemical, endpoint fluorescence intensity, uHTS hits (AID 624327); assay type: functional;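 further: fluorescence from hydrolysis of an O-methyl fluorescein acyl ester substrate by the enzyme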
# [3] = target: T2, Low molecular weight phosphotyrosine protein phosphatase (Homo sapiens, UniProt P24666); assay type: functional; settings: read-out: IC50_Mean
# T2 sequence (P24666 whole entry): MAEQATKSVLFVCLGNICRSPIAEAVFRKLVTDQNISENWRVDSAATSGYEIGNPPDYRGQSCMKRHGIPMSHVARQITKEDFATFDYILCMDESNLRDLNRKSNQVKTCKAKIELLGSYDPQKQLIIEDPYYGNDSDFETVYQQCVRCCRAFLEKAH
# [4] = target: T2, Low molecular weight phosphotyrosine protein phosphatase; assay type: functional; settings: read-out: IC50_Mean; remark: listed apart in the source
# [5] = target: T3, Long-chain-fatty-acid--AMP ligase FadD28 (Mycobacterium tuberculosis, UniProt P9WQ59); assay: Fluorescence polarization aasay to screen for inhibitors that compete for the binding of FadD28 to a bisubstrate Measured in Biochemical System Using Plate Reader - 2147-01_Inhibitor_Dose_CherryPick_Activity.; assay type: functional, Mycobacterium tuberculosis H37Rv
# T3 sequence (P9WQ59 whole entry): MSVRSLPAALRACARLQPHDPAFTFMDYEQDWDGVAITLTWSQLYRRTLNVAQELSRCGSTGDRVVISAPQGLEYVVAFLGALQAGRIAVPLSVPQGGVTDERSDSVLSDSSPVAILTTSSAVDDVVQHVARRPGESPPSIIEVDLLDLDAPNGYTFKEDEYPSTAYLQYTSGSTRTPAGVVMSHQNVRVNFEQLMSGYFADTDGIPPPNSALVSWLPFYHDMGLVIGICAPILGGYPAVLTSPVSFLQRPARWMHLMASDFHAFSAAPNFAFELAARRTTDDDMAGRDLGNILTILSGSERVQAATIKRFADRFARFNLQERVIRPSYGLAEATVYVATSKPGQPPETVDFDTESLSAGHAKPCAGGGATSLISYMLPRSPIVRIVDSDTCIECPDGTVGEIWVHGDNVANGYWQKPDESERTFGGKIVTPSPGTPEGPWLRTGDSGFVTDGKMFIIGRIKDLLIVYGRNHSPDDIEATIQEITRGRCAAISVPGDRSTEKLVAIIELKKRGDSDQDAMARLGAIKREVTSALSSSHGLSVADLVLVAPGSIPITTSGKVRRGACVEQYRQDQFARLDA
# [6] = THP-1 cell cytotoxicity, dose response, cytotoxicity control for non-replicating M. tuberculosis project (AID 489025); assay type: functional
# Leucine aminopeptidase = target: T4, Leucine aminopeptidase (Plasmodium falciparum 3D7, UniProt Q8IL11); assay: P. falciparum M17LAP inhibitors, primary screen, biochemical, fluorogenic H-Leu-NHMec substrate, 1536-well (AID 1619); assay type: functional
# T4 sequence (Q8IL11 whole entry): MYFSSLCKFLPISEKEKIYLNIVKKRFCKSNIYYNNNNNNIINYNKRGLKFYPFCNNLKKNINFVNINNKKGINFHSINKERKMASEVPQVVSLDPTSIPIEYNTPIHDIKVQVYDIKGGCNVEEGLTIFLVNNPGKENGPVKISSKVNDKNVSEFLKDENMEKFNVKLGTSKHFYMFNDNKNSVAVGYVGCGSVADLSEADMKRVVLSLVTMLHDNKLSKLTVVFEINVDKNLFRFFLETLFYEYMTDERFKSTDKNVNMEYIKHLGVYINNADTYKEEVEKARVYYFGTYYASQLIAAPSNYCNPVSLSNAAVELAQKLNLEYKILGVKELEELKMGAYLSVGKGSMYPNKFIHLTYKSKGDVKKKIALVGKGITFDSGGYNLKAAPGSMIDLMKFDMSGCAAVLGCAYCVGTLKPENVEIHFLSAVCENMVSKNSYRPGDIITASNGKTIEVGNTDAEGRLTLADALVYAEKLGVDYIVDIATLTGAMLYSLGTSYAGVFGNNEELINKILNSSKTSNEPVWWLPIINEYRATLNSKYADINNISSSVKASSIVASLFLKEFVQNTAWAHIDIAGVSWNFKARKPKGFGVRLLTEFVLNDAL
# [7] = target: T5, Carboxy-terminal domain RNA polymerase II polypeptide A small phosphatase 1 (Homo sapiens, UniProt Q9GZU7); assay: inhibitors of CTDSP1, concentration-response testing, biochemical assay, absorbance-based, actives from ultra-high-throughput screening (AID 540297); assay type: functional
# T5 sequence (Q9GZU7 whole entry): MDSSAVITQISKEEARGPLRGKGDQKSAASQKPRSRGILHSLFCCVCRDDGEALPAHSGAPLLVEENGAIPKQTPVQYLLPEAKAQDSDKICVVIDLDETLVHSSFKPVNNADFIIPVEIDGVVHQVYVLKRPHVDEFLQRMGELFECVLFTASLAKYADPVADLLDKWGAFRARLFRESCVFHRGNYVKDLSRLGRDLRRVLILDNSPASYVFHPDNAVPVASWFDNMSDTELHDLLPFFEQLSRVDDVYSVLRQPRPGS
# Beta-galactosidase = Beta-galactosidase (Escherichia coli, UniProt Q8VNN2); assay: PubChem AID 485352; assay type: functional
# Chain of Beta-galactosidase (Q8VNN2 whole entry): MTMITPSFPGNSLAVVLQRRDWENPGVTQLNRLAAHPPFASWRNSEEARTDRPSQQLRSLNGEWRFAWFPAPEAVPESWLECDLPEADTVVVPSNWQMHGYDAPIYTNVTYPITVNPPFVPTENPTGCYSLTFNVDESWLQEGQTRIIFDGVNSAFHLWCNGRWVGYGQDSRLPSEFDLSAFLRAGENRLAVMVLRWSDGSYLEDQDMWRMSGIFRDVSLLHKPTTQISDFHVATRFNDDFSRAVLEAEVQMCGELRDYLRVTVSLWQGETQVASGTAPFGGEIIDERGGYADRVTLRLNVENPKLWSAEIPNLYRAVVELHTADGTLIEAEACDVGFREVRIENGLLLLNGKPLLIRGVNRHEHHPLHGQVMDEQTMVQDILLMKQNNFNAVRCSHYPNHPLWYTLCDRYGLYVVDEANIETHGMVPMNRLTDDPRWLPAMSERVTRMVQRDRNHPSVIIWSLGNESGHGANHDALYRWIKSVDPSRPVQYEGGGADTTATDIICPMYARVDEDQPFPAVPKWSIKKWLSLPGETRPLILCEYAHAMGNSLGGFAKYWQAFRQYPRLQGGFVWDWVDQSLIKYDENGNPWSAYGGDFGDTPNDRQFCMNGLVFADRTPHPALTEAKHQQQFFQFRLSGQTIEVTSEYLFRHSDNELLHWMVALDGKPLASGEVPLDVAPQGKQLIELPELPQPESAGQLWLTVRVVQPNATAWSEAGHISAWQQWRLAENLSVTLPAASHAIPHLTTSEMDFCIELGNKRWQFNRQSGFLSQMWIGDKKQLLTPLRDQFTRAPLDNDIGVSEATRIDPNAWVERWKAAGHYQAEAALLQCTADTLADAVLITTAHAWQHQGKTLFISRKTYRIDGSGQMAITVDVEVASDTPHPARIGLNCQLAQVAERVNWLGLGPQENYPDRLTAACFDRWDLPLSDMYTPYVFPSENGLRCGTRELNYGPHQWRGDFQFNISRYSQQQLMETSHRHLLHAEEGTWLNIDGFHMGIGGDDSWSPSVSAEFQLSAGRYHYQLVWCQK
# [8] = target: T6, Type-1 angiotensin II receptor (Homo sapiens, UniProt P30556); assay: AT1 receptor antagonists, dose response, selectivity assay for APJ receptor antagonist project, cell-based, uHTS hits (AID 463214); assay type: functional;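 further: antagonist potency against angiotensin II stimulated AT1 response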
# T6 sequence (P30556 whole entry): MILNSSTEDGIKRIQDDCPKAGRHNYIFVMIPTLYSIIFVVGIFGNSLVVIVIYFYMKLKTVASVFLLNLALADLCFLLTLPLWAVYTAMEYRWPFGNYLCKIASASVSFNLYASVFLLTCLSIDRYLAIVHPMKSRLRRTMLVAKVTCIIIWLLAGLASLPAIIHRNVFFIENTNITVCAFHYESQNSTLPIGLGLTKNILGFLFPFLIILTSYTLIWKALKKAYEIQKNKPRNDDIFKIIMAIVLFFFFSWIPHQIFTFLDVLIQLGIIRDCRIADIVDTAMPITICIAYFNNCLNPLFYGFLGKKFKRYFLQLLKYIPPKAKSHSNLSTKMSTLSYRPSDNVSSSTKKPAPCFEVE
# [9] = miR-122 activators in hepatoma reporter cells, dose response, cell-based, Huh7 psiCHECK-miR122, Renilla luciferase, cherry-picked (AID 651956); assay type: functional;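 further: huh7 hepatoma cells stably carrying a psiCHECK-2 miR-122 sensor plasmid; renilla luciferase signal reporting endogenous miR-122 activity after 48 h compound exposure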
# Cytochrome P450 2C9 = Cytochrome P450 2C9 (Homo sapiens, UniProt P11712)
# Chain of Cytochrome P450 2C9 (P11712 whole entry): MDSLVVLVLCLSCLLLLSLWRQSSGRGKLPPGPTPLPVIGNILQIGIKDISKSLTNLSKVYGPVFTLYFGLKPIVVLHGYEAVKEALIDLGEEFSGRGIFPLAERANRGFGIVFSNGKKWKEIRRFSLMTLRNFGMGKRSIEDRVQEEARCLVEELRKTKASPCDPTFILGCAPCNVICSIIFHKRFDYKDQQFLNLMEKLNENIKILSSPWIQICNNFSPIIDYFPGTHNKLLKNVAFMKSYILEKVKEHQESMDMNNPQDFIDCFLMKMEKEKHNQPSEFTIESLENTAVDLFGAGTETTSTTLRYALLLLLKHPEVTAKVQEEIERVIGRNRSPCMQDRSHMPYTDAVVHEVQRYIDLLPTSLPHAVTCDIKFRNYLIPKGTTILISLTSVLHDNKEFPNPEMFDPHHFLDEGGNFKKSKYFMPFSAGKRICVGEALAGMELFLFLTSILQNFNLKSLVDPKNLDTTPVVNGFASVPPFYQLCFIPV
# [10] = target: T7, Ubiquitin-conjugating enzyme E2 N (Homo sapiens, UniProt P61088); assay type: functional;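 further: Dose-response confirmation in a TR-FRET assay detecting UBC13-driven polyubiquitin chain formation, inhibition measured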
# T7 sequence (P61088 whole entry): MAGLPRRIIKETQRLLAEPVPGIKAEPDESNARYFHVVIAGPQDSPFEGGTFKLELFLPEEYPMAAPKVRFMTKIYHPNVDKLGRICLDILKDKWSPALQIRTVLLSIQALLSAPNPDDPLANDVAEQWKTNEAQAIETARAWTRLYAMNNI
# [11] = Luminescence Cell-Based Dose Retest to Confirm Inhibitors of Cancer Stem Cells. [Related pubchem assays (depositor defined):AID2717, AID2721]; assay type: functional; settings: Homo sapiens
# [12] = target: T8, Replicative DNA helicase DnaB (Mycobacterium tuberculosis, UniProt P9WMR3); assay: DnaB intein splicing inhibitors, dose response, biochemical, cell-free fluorescence (AID 449749); assay type: functional
# T8 sequence (P9WMR3 whole entry): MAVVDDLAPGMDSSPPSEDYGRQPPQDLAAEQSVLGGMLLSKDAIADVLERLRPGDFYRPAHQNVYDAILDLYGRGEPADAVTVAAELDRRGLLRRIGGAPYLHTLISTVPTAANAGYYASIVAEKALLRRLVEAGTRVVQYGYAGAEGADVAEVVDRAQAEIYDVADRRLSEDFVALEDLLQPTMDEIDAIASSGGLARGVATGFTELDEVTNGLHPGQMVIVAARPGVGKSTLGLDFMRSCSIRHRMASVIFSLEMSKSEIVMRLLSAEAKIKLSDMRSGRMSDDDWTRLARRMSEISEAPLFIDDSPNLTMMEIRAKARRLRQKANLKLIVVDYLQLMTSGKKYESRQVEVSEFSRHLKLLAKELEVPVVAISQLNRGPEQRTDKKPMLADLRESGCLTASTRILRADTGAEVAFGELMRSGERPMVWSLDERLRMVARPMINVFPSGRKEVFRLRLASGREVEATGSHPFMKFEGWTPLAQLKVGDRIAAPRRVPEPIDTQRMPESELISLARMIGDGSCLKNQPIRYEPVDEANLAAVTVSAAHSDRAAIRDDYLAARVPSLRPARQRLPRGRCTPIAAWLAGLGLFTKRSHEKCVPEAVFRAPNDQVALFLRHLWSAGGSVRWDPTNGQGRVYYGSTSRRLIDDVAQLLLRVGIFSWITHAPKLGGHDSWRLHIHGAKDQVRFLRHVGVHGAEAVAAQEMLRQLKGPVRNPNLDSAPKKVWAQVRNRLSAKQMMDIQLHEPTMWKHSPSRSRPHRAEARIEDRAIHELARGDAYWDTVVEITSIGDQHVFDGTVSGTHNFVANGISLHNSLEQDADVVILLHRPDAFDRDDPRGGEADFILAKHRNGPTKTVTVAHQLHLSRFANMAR
# Protein RecA = target: T9, Protein RecA (Mycobacterium tuberculosis, UniProt P9WHJ3); assay: Fluorescence Cell-Free Homogeneous Dose Retest to Identify Inhibitors of RecA-Intein Splicing Activity. [Related pubchem assays (depositor defined):AID2097, AID2223, AID489010, AID492950]; assay type: functional
# T9 sequence (P9WHJ3 whole entry): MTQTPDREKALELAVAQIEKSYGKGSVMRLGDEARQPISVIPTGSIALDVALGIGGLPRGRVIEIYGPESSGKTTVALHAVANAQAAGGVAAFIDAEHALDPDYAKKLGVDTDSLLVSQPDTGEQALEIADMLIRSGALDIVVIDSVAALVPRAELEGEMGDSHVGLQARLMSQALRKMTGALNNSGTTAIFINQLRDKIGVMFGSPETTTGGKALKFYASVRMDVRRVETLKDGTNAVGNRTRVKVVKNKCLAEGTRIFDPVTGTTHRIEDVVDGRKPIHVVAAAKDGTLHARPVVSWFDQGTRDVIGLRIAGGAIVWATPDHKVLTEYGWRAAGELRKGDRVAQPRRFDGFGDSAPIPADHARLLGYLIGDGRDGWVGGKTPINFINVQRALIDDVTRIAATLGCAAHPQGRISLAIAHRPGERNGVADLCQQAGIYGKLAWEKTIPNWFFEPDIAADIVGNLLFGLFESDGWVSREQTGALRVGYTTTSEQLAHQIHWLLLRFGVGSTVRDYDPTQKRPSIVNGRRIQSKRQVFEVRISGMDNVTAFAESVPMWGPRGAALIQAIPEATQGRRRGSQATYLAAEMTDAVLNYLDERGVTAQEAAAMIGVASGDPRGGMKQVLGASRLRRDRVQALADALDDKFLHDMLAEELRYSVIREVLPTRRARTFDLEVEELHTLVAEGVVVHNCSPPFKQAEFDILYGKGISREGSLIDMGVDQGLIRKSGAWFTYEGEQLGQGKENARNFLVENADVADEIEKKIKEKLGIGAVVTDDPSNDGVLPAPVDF
# [13] = target: T10, Hepatocyte nuclear factor 4-alpha (Homo sapiens, UniProt P41235); assay type: functional, cell-based;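 further: biochemical luminescence-based dose-response counterscreen measuring inhibition of HNF4 dimerization, run alongside a screen for blockers of ABHD5–perilipin-5 interaction; split luciferase complementation of HNF4 fusion proteins in cell lysate measuring dimerization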
# T10 sequence (P41235 whole entry): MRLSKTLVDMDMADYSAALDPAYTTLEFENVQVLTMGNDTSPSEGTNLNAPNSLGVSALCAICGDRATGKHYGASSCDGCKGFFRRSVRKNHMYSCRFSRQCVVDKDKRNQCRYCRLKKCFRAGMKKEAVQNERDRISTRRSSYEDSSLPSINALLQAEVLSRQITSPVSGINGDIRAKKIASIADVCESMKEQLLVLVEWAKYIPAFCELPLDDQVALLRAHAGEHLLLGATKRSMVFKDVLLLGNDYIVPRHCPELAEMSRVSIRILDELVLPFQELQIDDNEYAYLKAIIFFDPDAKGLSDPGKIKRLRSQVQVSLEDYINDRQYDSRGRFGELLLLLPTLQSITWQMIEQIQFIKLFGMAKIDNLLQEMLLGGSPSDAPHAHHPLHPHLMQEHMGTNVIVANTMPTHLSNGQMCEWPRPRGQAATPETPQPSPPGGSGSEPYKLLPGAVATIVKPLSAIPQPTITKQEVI
# T1 sequence (P49327 whole entry, the tested form may be a part): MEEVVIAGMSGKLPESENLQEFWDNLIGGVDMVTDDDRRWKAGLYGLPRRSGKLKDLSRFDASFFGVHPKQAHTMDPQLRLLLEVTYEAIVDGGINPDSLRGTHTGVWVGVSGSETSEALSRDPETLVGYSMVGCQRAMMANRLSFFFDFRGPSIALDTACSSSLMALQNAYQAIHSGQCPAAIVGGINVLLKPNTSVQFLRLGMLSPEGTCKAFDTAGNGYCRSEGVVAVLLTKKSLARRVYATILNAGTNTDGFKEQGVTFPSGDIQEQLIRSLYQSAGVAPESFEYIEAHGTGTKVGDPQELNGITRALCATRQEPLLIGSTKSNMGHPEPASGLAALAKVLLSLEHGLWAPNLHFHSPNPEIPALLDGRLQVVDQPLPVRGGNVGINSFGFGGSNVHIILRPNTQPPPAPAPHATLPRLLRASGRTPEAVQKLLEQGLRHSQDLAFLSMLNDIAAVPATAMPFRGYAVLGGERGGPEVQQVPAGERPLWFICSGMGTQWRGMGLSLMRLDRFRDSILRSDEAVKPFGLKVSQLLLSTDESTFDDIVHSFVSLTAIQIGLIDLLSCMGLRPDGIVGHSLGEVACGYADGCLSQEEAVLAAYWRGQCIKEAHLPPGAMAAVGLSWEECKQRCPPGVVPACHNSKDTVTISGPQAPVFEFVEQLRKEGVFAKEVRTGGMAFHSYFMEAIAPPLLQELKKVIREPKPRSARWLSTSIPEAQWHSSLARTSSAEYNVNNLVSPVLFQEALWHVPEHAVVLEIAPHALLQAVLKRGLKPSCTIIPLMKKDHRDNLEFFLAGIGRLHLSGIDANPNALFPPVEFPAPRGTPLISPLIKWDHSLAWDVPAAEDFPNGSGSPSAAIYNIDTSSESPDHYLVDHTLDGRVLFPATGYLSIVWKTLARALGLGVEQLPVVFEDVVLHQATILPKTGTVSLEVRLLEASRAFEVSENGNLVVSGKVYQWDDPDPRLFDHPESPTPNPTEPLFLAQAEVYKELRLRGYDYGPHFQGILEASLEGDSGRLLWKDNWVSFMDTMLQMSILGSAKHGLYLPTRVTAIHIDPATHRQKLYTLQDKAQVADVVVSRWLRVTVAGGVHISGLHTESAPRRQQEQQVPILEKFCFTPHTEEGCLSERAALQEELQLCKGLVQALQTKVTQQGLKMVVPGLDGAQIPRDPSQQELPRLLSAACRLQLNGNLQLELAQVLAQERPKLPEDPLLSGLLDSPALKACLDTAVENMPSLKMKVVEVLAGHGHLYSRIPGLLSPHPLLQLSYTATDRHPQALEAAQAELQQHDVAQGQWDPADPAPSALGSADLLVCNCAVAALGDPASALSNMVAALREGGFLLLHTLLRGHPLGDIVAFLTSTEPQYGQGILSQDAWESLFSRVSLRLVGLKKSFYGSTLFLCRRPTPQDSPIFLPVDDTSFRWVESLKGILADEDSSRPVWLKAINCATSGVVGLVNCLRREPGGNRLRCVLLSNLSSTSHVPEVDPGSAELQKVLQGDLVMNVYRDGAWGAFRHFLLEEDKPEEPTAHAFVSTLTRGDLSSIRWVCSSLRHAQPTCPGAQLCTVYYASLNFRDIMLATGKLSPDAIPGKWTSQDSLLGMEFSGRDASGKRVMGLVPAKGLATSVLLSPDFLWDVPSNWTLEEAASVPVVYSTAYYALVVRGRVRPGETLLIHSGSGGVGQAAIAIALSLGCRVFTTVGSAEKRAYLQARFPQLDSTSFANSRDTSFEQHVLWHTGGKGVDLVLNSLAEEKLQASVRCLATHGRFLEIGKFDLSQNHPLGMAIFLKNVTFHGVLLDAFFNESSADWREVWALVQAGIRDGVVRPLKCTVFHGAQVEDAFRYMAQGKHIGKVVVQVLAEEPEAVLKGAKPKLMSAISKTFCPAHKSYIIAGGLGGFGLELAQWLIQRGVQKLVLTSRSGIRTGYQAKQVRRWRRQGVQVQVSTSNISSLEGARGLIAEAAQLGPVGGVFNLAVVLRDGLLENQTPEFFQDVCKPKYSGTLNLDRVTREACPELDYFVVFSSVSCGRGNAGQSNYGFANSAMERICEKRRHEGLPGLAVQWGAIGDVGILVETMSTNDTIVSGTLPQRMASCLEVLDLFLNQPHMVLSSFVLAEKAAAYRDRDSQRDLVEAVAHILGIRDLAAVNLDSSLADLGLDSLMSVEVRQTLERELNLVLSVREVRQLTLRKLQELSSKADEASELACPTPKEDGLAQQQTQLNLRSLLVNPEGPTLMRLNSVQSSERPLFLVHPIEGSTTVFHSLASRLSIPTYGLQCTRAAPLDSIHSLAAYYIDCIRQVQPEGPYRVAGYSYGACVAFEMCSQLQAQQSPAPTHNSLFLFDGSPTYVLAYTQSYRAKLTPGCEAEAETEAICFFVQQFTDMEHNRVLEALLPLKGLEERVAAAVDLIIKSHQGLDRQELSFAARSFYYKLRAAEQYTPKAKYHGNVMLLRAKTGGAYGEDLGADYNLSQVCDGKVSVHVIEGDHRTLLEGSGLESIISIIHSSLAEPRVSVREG
smiles,measurement,setting,value
O=C(COC(=O)c1cc([N+](=O)[O-])ccc1N1CCOCC1)Nc1ncc(Cl)cc1Cl,IC50,Fatty acid synthase [1],7.24 µM (active)
same,IC50,Fatty acid synthase [2],8.79 µM (active)
CCCN(CC(=O)Nc1ccc(F)c(F)c1F)C(=O)c1cc([N+](=O)[O-])ccc1N1CCOCC1,IC50,Fatty acid synthase [1],10.6 µM (active)
same,IC50,Fatty acid synthase [2],14.9 µM (active)
O=C(O)CCCCCNc1nc(-c2ccccc2)nc2ccccc12,IC50,[3],26.9 µM (inactive)
same,IC50,[4],12 µM (active)
Cc1ccc(NC(=O)CCNS(=O)(=O)c2cc(Br)cnc2N)cc1Cl,IC50,Fatty acid synthase [1],16.1 µM (active)
same,IC50,Fatty acid synthase [2],10.3 µM (active)
O=C(Nc1sc2c(c1C(=O)O)CCCCC2)c1ccccc1F,AC50,[5],> 100 µM (inactive)
same,CC50,[6],> 40 µM (active)
same,IC50,Leucine aminopeptidase,71 µM (active)
COc1ccc(/C=C/C(=O)NC(=S)Nc2cc([N+](=O)[O-])ccc2O)cc1OC,IC50,[7],4.85 µM (active)
same,IC50,[3],> 80 µM (inactive)
same,IC50,[4],17.8 µM (active)
same,EC50,Beta-galactosidase,> 40 µM (inactive)
same,IC50,[8],> 40 µM (not active)
O=C(c1ccc(CNc2c(NC3CCCCC3)c(=O)c2=O)cc1)N1CCc2ccccc21,AC50,[9],0.583 µM (active)
CCNC(=O)C[C@H]1CC[C@@H]2[C@@H](COc3ccc(NC(=O)Nc4cccc(Cl)c4)cc3C(=O)N2C)O1,AC50,[9],42 µM (active)
COCC(=O)N(C)C[C@H]1Oc2cc(-c3ccccc3F)ccc2S(=O)(=O)N([C@H](C)CO)C[C@H]1C,AC50,[9],2.56 µM (active)
CCN(CC)CCOc1ccc(/C(=C(\Cl)c2ccccc2)c2ccccc2)cc1.O=C(O)CC(O)(CC(=O)O)C(=O)O [CLOMIPHENE CITRATE],AC50,Cytochrome P450 2C9,inconclusive
same,IC50,[10],> 20 µM (inactive)
same,AC50,[11],997 nM (active)
same,AC50,[12],3.79 µM (active)
same,EC50,Protein RecA,12.1 µM (active)
same,IC50,[13],10.8 µM (inactive)
